# Source: patent publication US5001158A, “Nitrosoureas compounds preparation thereof and utilization thereof in anticancerous” (Centre National de la Recherche Scientifique, priority 1990, dated 1991)
# Legend:
# leukemia L 1210 = test: Antitumoral activity of A1 and A2 on leukemia L 1210 grafted i.p. in mice (ICIG); type: in vivo, mice (B6 D2 F1 OLA)
# Method: This activity was also studied on mice carrying leukemia L 1210 grafted i.p. This experimental tumor is the one most frequently used in the primary screening of cytostatic drugs.
# These tests were conducted in parallel in two laboratories: at Unit 71 of the Institut National de la Sante et de la Recberche Mediecale (INSERM), ClermontFerrand, and at the Institut de Cancerologie et d' Immunogenetique (ICIG), Villejuif.
# On day D:0, three-month-old male B6 D2 F1 mice received 10^5 cells of the leukemia strain L 1210 by intraperitoneal administration. The animals are divided up into groups of 8 to 10 animals for the control groups and 6 to 8 animals for the treated groups. On days D:1, D:5 and D:9, the animals receive the treatment at different doses by intraperitoneal or intravenous administration. The CNCC is administered as a suspension in olive oil. The products according to the invention are administered in physiological serum. The mortality is recorded every day. The survival median was determined for the treated animals and the control animals. The results are considered to be positive if the index I= [formula] is greater than 125.
# The value .infin. means that 50% to 100% of the animals have survived to day D:90.
# The cytostatic activity oi A1 and A2 on leukemia L 1210 was evaluated on B6 D2 F1 OLA mice at ICIG.
# ICIG also studied the antitumoral activity of each isomer A1 and A2, separately administered intravenously, on leukemia L 1210. […] Comparison of the active doses with those of CNCC is impossible because of the insolubility of CNCC, as mentioned previously.
# [1] = Plasma concentrations of A1 and A2 after oral administration, mice; type: in vivo; details: mouse, n = 10; for concentration at 1.5 h: 1 H 30 MIN; for concentration: 3 H; for concentration at 4.5 h: 4 H 30 MIN; for concentration at 0.25 h: 15 MIN; for concentration at 0.5 h: 30 MIN; for concentration at 0.75 h: 45 MIN
# Method: (§1) The plasma absorption and clearance kinetics of the products A1 and A2 according to the invention were studied on different animal species after oral administration. A mixture A1 A2 in the proportions 70%/30% was used so as to be able to make a comparison with CNCC. The mixture A1 A2 and the CNCC were administered at equivalent doses and the plasma concentrations of A1 and A2 were measured as a function of time. cl (a) Experimental protocol
# (§2) A solution of the mixture A1 A2 in distilled water is administered by stomach tube at a dose of 574 mg/m^2. A suspension of CNCC in olive oil is administered at a dose of 500 mg/m^2, also by stomach tube.
# (§3) The blood, taken by cardiac puncture, is centrifuged rapidly at 4° C. The plasma (1 ml) is deposited on a cartridge of Extrelut® and extraction is carried out with 6 ml of methylene chloride. After evaporation, the dry extract is taken up in 150 μl of methylene chloride for chromatographic analysis.
# (§4) Analysis of the plasma extracts for measuring the concentrations of A1 and A2 was performed by high performance liquid chromatography using the following technology:
# (§5) Detector: Pye Unicam spectrophotometer (Philips)λ250 nm.
# (§6) Elution carried out by means of a linear gradient ranging from methylene chloride 99.6%/ethanol 0.4% to methylene chloride 95%/ethanol 5% in 15 minutes
# [2] = Plasma concentrations of A1 and A2 after oral administration, rats; type: in vivo; details: rat, n = 5; for concentration at 1.5 h: 1 H 30 MIN; for concentration: 3 H; for concentration at 0.25 h: 15 MIN; for concentration at 0.5 h: 30 MIN; for concentration at 0.75 h: 45 MIN
# Method: as §1, §2, §3, §4, §5, §6
# [3] = Plasma concentrations of A1 and A2 after oral administration, rabbits; type: in vivo; details: rabbit, n = 5; for concentration at 1.5 h: 1 H 30 MIN; for concentration: 3 H; for concentration at 4.5 h: 4 H 30 MIN; for concentration at 0.25 h: 15 MIN; for concentration at 0.5 h: 30 MIN; for concentration at 0.75 h: 45 MIN
# Method: as §1, §2, §3, §4, §5, §6
# [4] = Pharmacokinetic comparison of mixture A1 A2 with CNCC, all animal species; type: in vivo, mice, rats and rabbits; details: p.o.
# Method: as §1, §2, §3, §4
# The plasma concentrations of A1 and A2 after oral administration of either the mixture A1 A2 or CNCC to mice, rats and rabbits are reported in Table V.
# [5] = after mixture A1 A2 574 mg/m^2 p.o.
smiles,measurement,setting,value
C[S+]([O-])CCNC(=O)N(CCCl)N=O (stereo not drawn) [Compound A2],T/C × 100,leukemia L 1210; 5 mg/kg i.v.,.infin. (50% to 100% of the animals have survived to day D:90)
same,T/C × 100,leukemia L 1210; 10 mg/kg i.v.,.infin. (50% to 100% of the animals have survived to day D:90)
same,interval between doses for maximum efficacy (IDME),leukemia L 1210; i.v.,presence of an IDME
same,percentage of mice surviving to day D:100 (in words),leukemia L 1210; i.v.,high percentage
same,antitumoral activity (in words),"leukemia L 1210; i.v., isomers separately",high activity
same,concentration at 1.5 h,[1]; after CNCC 500 mg/m^2 p.o.,12.7 µM
same,concentration at 1 h,[1]; after CNCC 500 mg/m^2 p.o.,19 µM
same,concentration at 2 h,[1]; after CNCC 500 mg/m^2 p.o.,9.9 µM
same,concentration,[1]; after CNCC 500 mg/m^2 p.o.,6.7 µM
same,concentration at 4.5 h,[1]; after CNCC 500 mg/m^2 p.o.,3.5 µM
same,concentration at 5 min,[1]; after CNCC 500 mg/m^2 p.o.,5.3 µM
same,concentration at 0.25 h,[1]; after CNCC 500 mg/m^2 p.o.,13.2 µM
same,concentration at 0.5 h,[1]; after CNCC 500 mg/m^2 p.o.,35.7 µM
same,concentration at 0.75 h,[1]; after CNCC 500 mg/m^2 p.o.,16.5 µM
same,concentration at 1.5 h,[1]; [5],10.8 µM
same,concentration at 1 h,[1]; [5],29.9 µM
same,concentration at 2 h,[1]; [5],6.3 µM
same,concentration,[1]; [5],2.9 µM
same,concentration at 4.5 h,[1]; [5],0.9 µM
same,concentration at 5 min,[1]; [5],83 µM
same,concentration at 0.25 h,[1]; [5],81.5 µM
same,concentration at 0.5 h,[1]; [5],66.3 µM
same,concentration at 0.75 h,[1]; [5],43.7 µM
same,concentration at 1.5 h,[2]; after CNCC 500 mg/m^2 p.o.,11.4 µM
same,concentration at 1 h,[2]; after CNCC 500 mg/m^2 p.o.,8.1 µM
same,concentration at 2 h,[2]; after CNCC 500 mg/m^2 p.o.,6.4 µM
same,concentration,[2]; after CNCC 500 mg/m^2 p.o.,6.5 µM
same,concentration at 4.5 h,"[2]; after CNCC 500 mg/m^2 p.o., 4 H 30 MIN",2.2 µM
same,concentration at 5 min,[2]; after CNCC 500 mg/m^2 p.o.,0.9 µM
same,concentration at 0.25 h,[2]; after CNCC 500 mg/m^2 p.o.,3.2 µM
same,concentration at 0.5 h,[2]; after CNCC 500 mg/m^2 p.o.,5.4 µM
same,concentration at 0.75 h,[2]; after CNCC 500 mg/m^2 p.o.,7.2 µM
same,concentration at 1.5 h,[2]; [5],12.9 µM
same,concentration at 1 h,[2]; [5],14.2 µM
same,concentration at 2 h,[2]; [5],7.8 µM
same,concentration,[2]; [5],2.9 µM
same,concentration at 5 min,[2]; [5],8.5 µM
same,concentration at 0.25 h,[2]; [5],17.7 µM
same,concentration at 0.5 h,[2]; [5],22.5 µM
same,concentration at 0.75 h,[2]; [5],11.4 µM
same,concentration at 1.5 h,[3]; after CNCC 500 mg/m^2 p.o.,4.2 µM
same,concentration at 2 h,[3]; after CNCC 500 mg/m^2 p.o.,3.5 µM
same,concentration,[3]; after CNCC 500 mg/m^2 p.o.,2 µM
same,concentration at 4.5 h,[3]; after CNCC 500 mg/m^2 p.o.,1 µM
same,concentration at 5 min,[3]; after CNCC 500 mg/m^2 p.o.,1.8 µM
same,concentration at 0.25 h,[3]; after CNCC 500 mg/m^2 p.o.,5 µM
same,concentration at 0.5 h,[3]; after CNCC 500 mg/m^2 p.o.,6 µM
same,concentration at 0.75 h,[3]; after CNCC 500 mg/m^2 p.o.,5.5 µM
same,concentration at 1.5 h,[3]; [5],9.2 µM
same,concentration at 1 h,"[3]; after mixture A1 A2 574 mg/m^2 p.o., 1 H",14.2 µM
same,concentration at 2 h,[3]; [5],6.3 µM
same,concentration,[3]; [5],2.9 µM
same,concentration at 4.5 h,[3]; [5],0.7 µM
same,concentration at 5 min,[3]; [5],11 µM
same,concentration at 0.25 h,[3]; [5],11.7 µM
same,concentration at 0.5 h,[3]; [5],16.5 µM
same,concentration at 0.75 h,[3]; [5],15 µM
same,bioavailability compared with CNCC (in words),[4],greater than that of CNCC
same,plasma concentrations after A1 A2 compared with after CNCC (in words),"[4]; equivalent doses, whatever the animal species",much higher
same,plasma concentration after A1 A2 compared with after CNCC (in words),[4]; preliminary data,considerably greater
